Experimental data: patent publication US10899737B2, “Piperazine carbamates and methods of making and using same” (Lundbeck La Jolla Research Center, Inc., priority 2016, dated 2021)

How the values were obtained:
MAGL [1] = molecular target: T1, MAGL (Homo sapiens, UniProt Q99685); assay: In vitro competitive activity-based protein profiling (human), MAGL; type: biochemical; details: for inhibition at 1 µM: 1 μM inhibitor, human proteome, 30 min preincubation at 37° C, read-out: MAGL % inh. 1 μM (human); for IC50: human PC3
T1 construct: Proteomes (human prefrontal cortex or cell membrane fractions); from tissue
T1 sequence (Q99685 1-303): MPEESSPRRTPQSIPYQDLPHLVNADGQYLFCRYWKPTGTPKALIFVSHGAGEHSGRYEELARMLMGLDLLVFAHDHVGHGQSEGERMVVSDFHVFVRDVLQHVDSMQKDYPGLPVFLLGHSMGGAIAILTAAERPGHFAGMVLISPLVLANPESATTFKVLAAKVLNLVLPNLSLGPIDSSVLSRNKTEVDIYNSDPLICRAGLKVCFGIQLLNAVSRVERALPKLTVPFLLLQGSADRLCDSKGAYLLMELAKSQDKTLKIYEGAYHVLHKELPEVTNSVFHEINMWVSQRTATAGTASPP
Procedure, shortened: (§1)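 Human prefrontal cortex or cell membrane proteomes (1.0-2.0 mg/mL protein) preincubated 30 min at 37° C with inhibitor, then labeled 30 min RT with FP-Rh or JW912 probe. After SDS-PAGE, activity taken from fluorescent band intensity for each enzyme.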

ABHD6 [2] = molecular target: T2, ABHD6 (Homo sapiens, UniProt Q9BV23); assay: In vitro competitive activity-based protein profiling (human), ABHD6; type: biochemical; details: human PC3
T2 construct: Proteomes (human prefrontal cortex or cell membrane fractions); endogenous in cells; human prefrontal cortex
T2 sequence (Q9BV23 1-337): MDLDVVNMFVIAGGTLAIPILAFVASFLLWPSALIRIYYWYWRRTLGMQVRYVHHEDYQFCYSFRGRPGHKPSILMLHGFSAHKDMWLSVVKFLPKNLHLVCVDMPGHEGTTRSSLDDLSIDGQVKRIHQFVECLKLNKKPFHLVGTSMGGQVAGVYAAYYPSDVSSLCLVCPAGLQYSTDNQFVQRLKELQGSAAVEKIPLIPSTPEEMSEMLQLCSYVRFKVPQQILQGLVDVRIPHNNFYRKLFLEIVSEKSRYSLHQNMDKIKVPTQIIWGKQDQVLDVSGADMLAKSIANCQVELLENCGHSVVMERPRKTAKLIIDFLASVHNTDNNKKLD
Procedure, shortened: as §1

MAGL [3] = molecular target: T3, MAGL (Mus musculus, UniProt O35678); assay: In vitro competitive activity-based protein profiling (mouse), MAGL; type: biochemical; details: for inhibition at 1 µM: 1 μM inhibitor, mouse brain membrane fraction or cell lysates, read-out: MAGL % inh. 1 μM (mouse); for IC50: mouse proteome
T3 construct: Proteomes (mouse brain membrane fraction or cell lysates); from tissue; host or cells: mouse brain membrane fraction or cell lysates
T3 sequence (O35678 1-303): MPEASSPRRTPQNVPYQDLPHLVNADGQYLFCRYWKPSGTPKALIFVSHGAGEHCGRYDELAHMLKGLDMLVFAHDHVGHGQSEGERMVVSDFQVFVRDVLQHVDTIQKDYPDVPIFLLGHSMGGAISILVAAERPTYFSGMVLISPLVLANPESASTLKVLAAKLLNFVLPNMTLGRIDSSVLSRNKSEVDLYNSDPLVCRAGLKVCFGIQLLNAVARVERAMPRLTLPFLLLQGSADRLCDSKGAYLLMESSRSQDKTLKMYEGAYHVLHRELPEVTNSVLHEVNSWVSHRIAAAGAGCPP
Procedure, shortened: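 Mouse brain membrane fraction or cell lysate proteomes (50 μL, 1.0 mg/mL total protein) were preincubated with inhibitors at varying concentrations for 30 min at 37° C. FP-Rh (1.0 μL, 50 μM in DMSO) was then added for a further 30 min at 37° C. Samples were quenched with 4× SDS loading buffer and resolved by SDS-PAGE. MAGL activity was quantified from fluorescent gel band intensity using ImageJ 1.49 k.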

ABHD6 [4] = molecular target: T4, ABHD6 (Mus musculus, UniProt Q8R2Y0); assay: In vitro competitive activity-based protein profiling (mouse), ABHD6; type: biochemical; details: 1 μM inhibitor, mouse brain membrane fraction or cell lysates; read-out: ABHD6 % inh. 1 μM (mouse)
T4 construct: Proteomes (mouse brain membrane fraction or cell lysates); from tissue; host or cells: mouse brain membrane fraction or cell lysates
T4 sequence (Q8R2Y0 1-336): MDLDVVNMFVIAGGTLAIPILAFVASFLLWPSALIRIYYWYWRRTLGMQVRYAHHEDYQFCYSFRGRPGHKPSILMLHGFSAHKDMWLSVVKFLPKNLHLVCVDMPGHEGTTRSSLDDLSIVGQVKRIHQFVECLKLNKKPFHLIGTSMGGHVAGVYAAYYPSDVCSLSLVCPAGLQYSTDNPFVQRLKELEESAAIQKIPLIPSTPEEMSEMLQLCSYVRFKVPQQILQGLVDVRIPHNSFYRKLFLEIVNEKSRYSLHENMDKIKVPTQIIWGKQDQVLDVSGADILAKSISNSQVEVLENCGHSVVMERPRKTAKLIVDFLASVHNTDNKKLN
Procedure, shortened: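 Mouse brain membrane proteome or cell lysate (1.0 mg/mL protein) preincubated 30 min at 37 °C with inhibitor, then labelled 30 min at 37 °C with FP-rhodamine probe. Remaining MAGL and ABHD6 activity quantified by in-gel fluorescence band intensity after SDS-PAGE; values are % inhibition at 1 μM.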

MAGL [5] = molecular target: T3, MAGL; assay: Mouse brain proteomes from inhibitor treated mice, MAGL inhibition; type: in vivo; details: 5 mg/kg oral gavage, C57Bl/6J mouse brain, 4 h following administration; read-out: MAGL % inh. 5 mg/kg (mouse)
Description: Preparation of Mouse Brain Proteomes from Inhibitor Treated Mice.
Inhibitors were administered to wild-type C57Bl/6J by oral gavage in a vehicle of polyethylene glycol. Each animal was sacrificed 4 h following administration and brain proteomes were prepared and analyzed according to previously established methods (See Niphakis, M. J., et al. (2011) ACS Chem. Neurosci. and Long, J. Z., et al. Nat. Chem. Biol. 5:37-44).

Row | inhibition at 1 µM (MAGL [1]) | IC50 (MAGL [1]) | IC50 (ABHD6 [2]) | inhibition at 1 µM (MAGL [3]) | inhibition at 1 µM (ABHD6 [4]) | inhibition at 5 mg/kg (MAGL [5]) | IC50 (MAGL [3]) | Compound
1 | ≥ 75% | ≤ 0.1 µM | 1 to 10 µM | ≥ 75% | 0 to 25% | 0 to 25% | – | O=C(O)CN1CC2CN(c3cc(C(F)(F)F)ccc3CN3CCN(C(=O)OC(C(F)(F)F)C(F)(F)F)CC3)CC2C1 (centres unmarked) [Example 15, 2-(5-(2-((4-(((1,1,1,3,3,3-Hexafluoropropan-2-yl)oxy)carbonyl)piperazin-1-yl)methyl)-5-(trifluoromethyl)phenyl)hexahydropyrrolo[3,4-c]pyrrol-2(1H)-yl)acetic Acid]
2 | ≥ 75% | 0.1 to 1 µM | 1 to 10 µM | ≥ 75% | 0 to 25% | 0 to 25% | 0.1 to 1 µM | O=C(O)C1CCN(C(=O)c2cc(C(F)(F)F)ccc2CN2CCN(C(=O)OC(C(F)(F)F)C(F)(F)F)CC2)CC1 [Example 35, 1-(2-((4-(((1,1,1,3,3,3-Hexafluoropropan-2-yl)oxy)carbonyl)piperazin-1-yl)methyl)-5-(trifluoromethyl)benzoyl)piperidine-4-carboxylic Acid]
3 | ≥ 75% | ≤ 0.1 µM | 1 to 10 µM | ≥ 75% | 0 to 25% | 0 to 25% | – | O=C(O)Cn1ccc(-c2cc(F)ccc2CN2CCN(C(=O)OC(C(F)(F)F)C(F)(F)F)CC2)n1 [Example 13, 2-(3-(5-Fluoro-2-((4-(((1,1,1,3,3,3-hexafluoropropan-2-yl)oxy)carbonyl)piperazin-1-yl)methyl)phenyl)-1H-pyrazol-1-yl)acetic Acid]
4 | ≥ 75% | ≤ 0.1 µM | 1 to 10 µM | ≥ 75% | 0 to 25% | 0 to 25% | – | O=C(O)CN1CCC2(CC1)CN(c1cc(C(F)(F)F)ccc1CN1CCN(C(=O)OC(C(F)(F)F)C(F)(F)F)CC1)C2 [Example 17, 2-(2-(2-((4-(((1,1,1,3,3,3-Hexafluoropropan-2-yl)oxy)carbonyl)piperazin-1-yl)methyl)-5-(trifluoromethyl)phenyl)-2,7-diazaspiro[3.5]nonan-7-yl)acetic Acid]
5 | ≥ 75% | ≤ 0.1 µM | 1 to 10 µM | ≥ 75% | ≥ 75% | 0 to 25% | – | O=C(O)c1csc(-c2cc(C(F)(F)F)ccc2CN2CCN(C(=O)OC(C(F)(F)F)C(F)(F)F)CC2)c1 [Example 10, 5-(2-((4-(((1,1,1,3,3,3-Hexafluoropropan-2-yl)oxy)carbonyl)piperazin-1-yl)methyl)-5-(trifluoromethyl)phenyl)thiophene-3-carboxylic Acid]
6 | ≥ 75% | ≤ 0.1 µM | 1 to 10 µM | ≥ 75% | 50 to 75% | ≥ 75% | – | O=C(O)C1CCN(c2c(CN3CCN(C(=O)OC(C(F)(F)F)C(F)(F)F)CC3)ccc(Cl)c2F)CC1 [Example 62, 1-(3-chloro-2-fluoro-6-((4-(((1,1,1,3,3,3-hexafluoropropan-2-yl)oxy)carbonyl)piperazin-1-yl)methyl)phenyl)piperidine-4-carboxylic acid]
7 | ≥ 75% | ≤ 0.1 µM | 1 to 10 µM | ≥ 75% | 0 to 25% | 0 to 25% | – | O=C(O)CN1CC2(CCN(c3cc(C(F)(F)F)ccc3CN3CCN(C(=O)OC(C(F)(F)F)C(F)(F)F)CC3)C2)C1 [Example 22, 2-(6-(2-((4-(((1,1,1,3,3,3-Hexafluoropropan-2-yl)oxy)carbonyl)piperazin-1-yl)methyl)-5-(trifluoromethyl)phenyl)-2,6-diazaspiro[3.4]octan-2-yl)acetic Acid]
8 | ≥ 75% | ≤ 0.1 µM | 1 to 10 µM | ≥ 75% | 0 to 25% | ≥ 75% | – | O=C(O)[C@@H]1CCCN(c2cc(C(F)(F)F)ccc2CN2CCN(C(=O)OC(C(F)(F)F)C(F)(F)F)CC2)C1 [Example 70, (R)-1-(2-((4-(((1,1,1,3,3,3-hexafluoropropan-2-yl)oxy)carbonyl)piperazin-1-yl)methyl)-5-(trifluoromethyl)phenyl)piperidine-3-carboxylic acid]
9 | ≥ 75% | ≤ 0.1 µM | 1 to 10 µM | ≥ 75% | 0 to 25% | 0 to 25% | – | CC1(NCC(=O)O)CCN(c2cc(C(F)(F)F)ccc2CN2CCN(C(=O)OC(C(F)(F)F)C(F)(F)F)CC2)CC1 [Example 51, (1-(2-((4-(((1,1,1,3,3,3-hexafluoropropan-2-yl)oxy)carbonyl)piperazin-1-yl)methyl)-5-(trifluoromethyl)phenyl)-4-methylpiperidin-4-yl)glycine]
10 | ≥ 75% | ≤ 0.1 µM | 1 to 10 µM | ≥ 75% | 0 to 25% | 0 to 25% | ≤ 0.1 µM | CC1(C(=O)O)CN(c2cc(C(F)(F)F)ccc2CN2CCN(C(=O)OC(C(F)(F)F)C(F)(F)F)CC2)CCO1 (centres unmarked) [Example 57, 4-{2-[(4-{[(1,1,1,3,3,3-hexafluoropropan-2-yl)oxy]carbonyl}piperazin-1-yl)methyl]-5-(trifluoromethyl)phenyl}-2-methylmorpholine-2-carboxylic acid]
11 | ≥ 75% | ≤ 0.1 µM | 1 to 10 µM | ≥ 75% | 0 to 25% | 0 to 25% | – | O=C(O)CN1CCCC12CCN(c1cc(C(F)(F)F)ccc1CN1CCN(C(=O)OC(C(F)(F)F)C(F)(F)F)CC1)CC2 [Example 20, 2-(8-(2-((4-(((1,1,1,3,3,3-Hexafluoropropan-2-yl)oxy)carbonyl)piperazin-1-yl)methyl)-5-(trifluoromethyl)phenyl)-1,8-diazaspiro[4.5]decan-1-yl)acetic Acid]
12 | ≥ 75% | ≤ 0.1 µM | 0.1 to 1 µM | ≥ 75% | 50 to 75% | ≥ 75% | – | CC1(C(=O)O)CCN(c2cc(Cl)ccc2CN2CCN(C(=O)OC(C(F)(F)F)C(F)(F)F)CC2)CC1 [Example 63, 1-(5-chloro-2-((4-(((1,1,1,3,3,3-hexafluoropropan-2-yl)oxy)carbonyl)piperazin-1-yl)methyl)phenyl)-4-methylpiperidine-4-carboxylic acid]
